Experimental data published in patent US11840686B2, “Modulation of prekallikrein (PKK) expression” (Ionis Pharmaceuticals, Inc., priority 2013, dated 2023).
Strand notation (5' to 3'): a small letter for the sugar, then the base; units joined by * are phosphorothioate-linked, units joined directly phosphodiester-linked; [ ] holds rarer units or linkages, { } end groups; capitals alone tell only the bases. e = 2'-O-(2-methoxyethyl) (MOE); [5mC] = 5-methylcytosine; d = 2'-deoxy (DNA)

Test system: human PKK mRNA
Experiment: Antisense inhibition of human PKK mRNA in HepaRG cells, 5,000 nM (Example 2)
Format: cell-based
Conditions: HepaRG cells, 5,000 nM antisense oligonucleotide; 5-10-5 gapmers; Table 16
Procedure, shortened: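 Chimeric MOE gapmers with full phosphorothioate backbones were tested once at 5,000 nM in electroporated HepaRG cells. After about 24 hours, quantitative PCR measured PKK mRNA relative to untreated control cells.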

Row | Substance | % inhibition
1 | 547684 (antisense eT*eA*eA*e[5mC]*eT*dA*dT*dA*dT*d[5mC]*dA*d[5mC]*dT*dG*dT*e[5mC]*e[5mC]*eT*eA*eT) [compound 547684] | 43%

Same assay, conditions: HepaRG cells, 5,000 nM antisense oligonucleotide; 5-10-5 gapmers; Table 17

Row | Substance | % inhibition
2 | 547076 (eT*e[5mC]*eT*e[5mC]*eA*dA*dG*d[5mC]*dA*dG*d[5mC]*d[5mC]*dT*dA*dT*eT*eG*eT*eG*eT; antisense) [compound 547076] | 14%
3 | 547748 (eG*eG*eT*eT*eG*dG*dT*dG*dG*d[5mC]*dG*dG*dG*dA*dT*e[5mC]*eG*eG*eT*eG; antisense) [compound 547748] | 78%
4 | 547739 (eA*eT*eT*eG*eG*dT*dG*dG*dT*dG*dG*dG*dA*dT*dT*eG*eG*eT*eG*e[5mC]; antisense) [compound 547739] | 12%

Same assay, conditions: HepaRG cells, electroporation with 5,000 nM antisense oligonucleotide, approximately 24 hours, PKK mRNA by RT-PCR (RTS3454), relative to untreated control cells; Table 5 experiment

Row | Substance | % inhibition
5 | 546154 (eT*eG*eG*e[5mC]*eA*dG*dT*dA*dT*dT*dG*dG*dG*d[5mC]*dA*eT*eT*eT*eG*eG; antisense) [compound 546154] | 85%
6 | 547279 (antisense eA*eA*eA*eA*e[5mC]*dA*d[5mC]*dA*dA*dT*dT*dG*d[5mC]*dT*dT*e[5mC]*eT*eT*eG*eG) [compound 547279] | 69%
7 | 546138 (eA*eA*eA*e[5mC]*eA*d[5mC]*dA*dA*dT*dT*dG*d[5mC]*dT*dT*d[5mC]*eT*eT*eG*eG*eA; antisense) [compound 546138] | 69%
8 | 546153 (eG*eG*eG*eT*eG*dT*dA*d[5mC]*dA*dT*dG*dG*dA*dA*dG*e[5mC]*eT*eA*e[5mC]*eA; antisense) [compound 546153] | 76%
9 | 546151 (eG*eG*eA*eA*eG*d[5mC]*dT*dA*d[5mC]*dA*dT*d[5mC]*d[5mC]*d[5mC]*d[5mC]*eA*e[5mC]*e[5mC]*eT*e[5mC]; antisense) [compound 546151] | 76%

Same assay, conditions: HepaRG cells, electroporation with 5,000 nM antisense oligonucleotide, approximately 24 hours, PKK mRNA by RT-PCR (RTS3454), relative to untreated control cells; Table 6 experiment

Row | Substance | % inhibition
10 | 547316 (antisense eG*eA*eA*eA*e[5mC]*dT*dG*d[5mC]*dA*d[5mC]*d[5mC]*dT*dG*dT*dT*e[5mC]*eG*eA*eT*eG) [compound 547316] | 75%
11 | 546210 (antisense e[5mC]*e[5mC]*eA*eA*eT*dT*dT*d[5mC]*dT*dG*dA*dA*dA*dG*dG*eG*e[5mC]*eA*e[5mC]*eA) [compound 546210] | 79%
12 | 547332 (antisense e[5mC]*eG*eA*eT*eG*dG*d[5mC]*dA*dA*dG*d[5mC]*dA*d[5mC]*dT*dT*eA*eT*eT*eT*eG) [compound 547332] | 44%
13 | 547328 (antisense eA*eT*eT*eT*eG*dA*dT*dG*dA*d[5mC]*d[5mC]*dA*d[5mC]*dA*dT*eT*eG*e[5mC]*eT*eT) [compound 547328] | 40%
14 | 547348 (antisense eA*e[5mC]*eA*e[5mC]*eT*dG*d[5mC]*dT*dA*dA*d[5mC]*d[5mC]*dT*dT*dA*eG*eA*e[5mC]*eA*e[5mC]) [compound 547348] | 83%

Same assay, conditions: HepaRG cells, electroporation, 5,000 nM antisense oligonucleotide, approx. 24 hours, primer probe set RTS3454, relative to untreated control cells; Table 11

Row | Substance | % inhibition
15 | 546353 (antisense e[5mC]*eT*e[5mC]*eA*eG*d[5mC]*dG*dA*d[5mC]*dT*dT*dT*dG*dG*dT*eG*eT*eA*eG*eA) [compound 546353] | 55%
16 | 547517 (antisense eT*eA*eG*eG*eA*dT*dG*d[5mC]*dA*dA*dA*dG*dA*dA*dG*eA*eT*eG*e[5mC]*e[5mC]) [compound 547517] | 57%
17 | 547524 (antisense e[5mC]*eA*eT*eT*eG*dT*d[5mC]*dA*dG*d[5mC]*d[5mC]*d[5mC]*d[5mC]*dT*dG*eG*eT*eT*eA*e[5mC]) [compound 547524] | 58%
18 | 547522 (antisense eG*eA*eA*eA*eG*d[5mC]*dG*dG*dG*d[5mC]*dT*dT*d[5mC]*dA*dG*e[5mC]*e[5mC]*eA*eG*eA) [compound 547522] | 73%
19 | 547521 (antisense e[5mC]*eT*eT*e[5mC]*eA*dG*d[5mC]*d[5mC]*dA*dG*dA*d[5mC]*dA*dT*dT*eG*eT*e[5mC]*e[5mC]*eT) [compound 547521] | 58%
20 | 546383 (antisense eG*eG*eA*eT*eG*d[5mC]*dA*dA*dA*dG*dA*dA*dG*dA*dT*eG*e[5mC]*e[5mC]*eA*e[5mC]) [compound 546383] | 57%

Same assay, conditions: HepaRG cells, electroporation, 5,000 nM antisense oligonucleotide, approx. 24 hours, primer probe set RTS3454, relative to untreated control cells; Table 12

Row | Substance | % inhibition
21 | 547544 (antisense eT*e[5mC]*eG*e[5mC]*e[5mC]*dT*dT*dT*dG*dT*dG*dA*dT*dG*d[5mC]*eG*eA*eT*eT*eT) [compound 547544] | 15%
22 | 546453 (e[5mC]*eT*e[5mC]*eA*eT*dT*dG*dT*dT*dG*dT*dG*dT*dG*dG*e[5mC]*e[5mC]*e[5mC]*eT*e[5mC]; antisense) [compound 546453] | 82%
23 | 546502 (eG*eA*eT*eT*eT*dT*d[5mC]*d[5mC]*dA*dT*dG*d[5mC]*dA*dT*dA*e[5mC]*eT*e[5mC]*eG*e[5mC]; antisense) [compound 546502] | 37%

Same assay, conditions: Table 7; HepaRG cells, electroporation with 5,000 nM antisense oligonucleotide, approx. 24 hours; PKK mRNA by RT-PCR (RTS3454), relative to untreated control cells

Row | Substance | % inhibition
24 | 547365 (eT*eG*eA*eG*eA*dA*d[5mC]*d[5mC]*d[5mC]*dT*dG*dG*d[5mC]*dA*dA*e[5mC]*eA*eT*e[5mC]*e[5mC]; antisense) [compound 547365] | 81%

Same assay, conditions: Table 8; HepaRG cells, electroporation with 5,000 nM antisense oligonucleotide, approx. 24 hours; PKK mRNA by RT-PCR (RTS3454), relative to untreated control cells

Row | Substance | % inhibition
25 | 546263 (eG*eG*eA*eG*eT*dA*dA*dA*dG*dA*dA*dT*dA*dA*dG*eT*eG*eA*eA*eA; antisense) [compound 546263] | 0%

Same assay, conditions: Table 9 experiment; HepaRG cells, 20,000 cells per well, electroporation with 5,000 nM antisense oligonucleotide, approx. 24 hours; PKK mRNA by RT-PCR (RTS3454), relative to untreated control cells

Row | Substance | % inhibition
26 | 547465 (antisense eA*eA*eA*eT*eT*dG*dT*dG*d[5mC]*dT*dT*dG*dT*dG*dT*e[5mC]*eA*e[5mC]*e[5mC]*eT) [compound 547465] | 88%
27 | 547480 (antisense eT*eT*e[5mC]*eT*eT*dT*dA*dT*dA*dG*d[5mC]*d[5mC]*dA*dG*d[5mC]*eA*e[5mC]*eA*eG*eA) [compound 547480] | 60%
28 | 546322 (antisense e[5mC]*eT*eT*eG*eT*dG*dT*d[5mC]*dA*d[5mC]*d[5mC]*dT*dT*dT*dG*eG*eA*eA*eG*eG) [compound 546322] | 74%
29 | 547469 (antisense eT*eT*eA*e[5mC]*e[5mC]*d[5mC]*dA*dA*d[5mC]*dA*dG*dT*dT*dG*dG*eT*eA*eT*eA*eA) [compound 547469] | 67%
30 | 547477 (antisense eT*e[5mC]*eT*eT*e[5mC]*dA*dT*dT*dT*dG*dT*dT*dA*d[5mC]*d[5mC]*eA*eA*eA*eG*eG) [compound 547477] | 74%
31 | 546311 (antisense e[5mC]*eA*eT*eG*eA*dT*dT*d[5mC]*d[5mC]*d[5mC]*dT*dT*d[5mC]*dT*dG*eA*eG*eA*e[5mC]*eT) [compound 546311] | 79%

Same assay, conditions: Table 10 experiment; HepaRG cells, 20,000 cells per well, electroporation with 5,000 nM antisense oligonucleotide, approx. 24 hours; PKK mRNA by RT-PCR (RTS3454), relative to untreated control cells

Row | Substance | % inhibition
32 | 547465 (antisense eA*eA*eA*eT*eT*dG*dT*dG*d[5mC]*dT*dT*dG*dT*dG*dT*e[5mC]*eA*e[5mC]*e[5mC]*eT) [compound 547465] | 85%
33 | 547480 (antisense eT*eT*e[5mC]*eT*eT*dT*dA*dT*dA*dG*d[5mC]*d[5mC]*dA*dG*d[5mC]*eA*e[5mC]*eA*eG*eA) [compound 547480] | 49%
34 | 546322 (antisense e[5mC]*eT*eT*eG*eT*dG*dT*d[5mC]*dA*d[5mC]*d[5mC]*dT*dT*dT*dG*eG*eA*eA*eG*eG) [compound 546322] | 68%
35 | 547469 (antisense eT*eT*eA*e[5mC]*e[5mC]*d[5mC]*dA*dA*d[5mC]*dA*dG*dT*dT*dG*dG*eT*eA*eT*eA*eA) [compound 547469] | 50%
36 | 547477 (antisense eT*e[5mC]*eT*eT*e[5mC]*dA*dT*dT*dT*dG*dT*dT*dA*d[5mC]*d[5mC]*eA*eA*eA*eG*eG) [compound 547477] | 68%
37 | 546311 (antisense e[5mC]*eA*eT*eG*eA*dT*dT*d[5mC]*d[5mC]*d[5mC]*dT*dT*d[5mC]*dT*dG*eA*eG*eA*e[5mC]*eT) [compound 546311] | 76%

Same assay, conditions: Table 13; human PKK mRNA in HepaRG cells; 5-10-5 gapmers

Row | Substance | % inhibition
38 | 546749 (eG*e[5mC]*eT*eG*eG*dT*d[5mC]*d[5mC]*dT*dT*dG*dA*dA*d[5mC]*d[5mC]*e[5mC]*e[5mC]*eG*eT*eG; antisense) [compound 546749] | 53%

Same assay, conditions: human PKK mRNA in HepaRG cells; 5-10-5 gapmers; Table 14

Row | Substance | % inhibition
39 | 547624 (antisense eA*eT*eG*eT*e[5mC]*dA*d[5mC]*dT*dG*dT*dA*d[5mC]*d[5mC]*dT*dA*eT*eA*eA*e[5mC]*eT) [compound 547624] | 64%
40 | 547599 (antisense eT*eT*e[5mC]*e[5mC]*eT*dA*dT*dA*dA*d[5mC]*dT*dA*dT*dA*dA*e[5mC]*eA*eA*eT*eA) [compound 547599] | 4%
41 | 546884 (eA*e[5mC]*eT*eA*eG*dT*dT*dT*d[5mC]*d[5mC]*dT*dA*dT*dA*dA*e[5mC]*eA*eG*eT*eA; antisense) [compound 546884] | 6%
42 | 547586 (eT*eA*eT*eA*eA*d[5mC]*dA*dG*dT*dA*dT*d[5mC]*dA*d[5mC]*dT*eG*eT*e[5mC]*e[5mC]*eT; antisense) [compound 547586] | 82%
43 | 547620 (antisense eT*eT*e[5mC]*e[5mC]*eT*dA*dT*dA*dA*d[5mC]*dA*dG*dT*dA*dT*e[5mC]*eA*e[5mC]*eT*eG) [compound 547620] | 65%

Same assay, conditions: human PKK mRNA, HepaRG cells; 5-10-5 motif oligonucleotides targeting SEQ ID NO: 1 and 10

Row | Substance | % inhibition
44 | 547631 (antisense e[5mC]*eA*e[5mC]*eT*eG*dT*d[5mC]*d[5mC]*dT*dA*dT*dA*dT*d[5mC]*dA*e[5mC]*eT*e[5mC]*eT*eA) [compound 547631] | 85%
45 | 547651 (eT*eG*eT*eA*e[5mC]*d[5mC]*dT*dA*dT*dA*dA*d[5mC]*dA*dG*dT*eA*eT*e[5mC]*eA*e[5mC]; antisense) [compound 547651] | 48%
46 | 546898 (eA*eA*e[5mC]*eA*eG*dT*dA*dT*d[5mC]*dA*d[5mC]*dT*dG*dT*d[5mC]*e[5mC]*eT*eA*eT*eG; antisense) [compound 546898] | 91%
47 | 547634 (antisense eA*eT*e[5mC]*eA*e[5mC]*dT*dG*dT*dA*d[5mC]*dT*dA*dG*dT*dT*eT*eT*e[5mC]*eT*eA) [compound 547634] | 72%
48 | 547627 (antisense eT*e[5mC]*eT*eA*e[5mC]*d[5mC]*dT*dA*dT*dA*dA*d[5mC]*dT*d[5mC]*dT*eA*eA*e[5mC]*eA*eG) [compound 547627] | 71%
